Measured values published in PMC7865522, “Analyzing Kinase Similarity in Small Molecule and Protein Structural Space to Explore the Limits of Multi-Target Screening” (Molecules, 2021).

Legend:
[1] = molecular target: T1, BRAF (Homo sapiens, UniProt P15056); experiment: DiscoverX KINOMEscan competition binding assay; conditions: for % control, BRAF (DiscoverX): compound 10 µM, lower values = higher affinity, below 35% = significant binding
T1 construct: purchased DiscoverX (KINOMEscan service); host or cells: E. coli BL21-derived host (T7 phage) or HEK-293
Procedure: (§1) Ligand binding experiments for the molecules selected from Profiles 1 and 2 towards nine kinases (EGFR, ErbB2, LCK, CDK2, BRAF, MET, p38α, PI3K and VEGFR2) and for molecules selected from Profiles 3 and 4 towards four kinases (EGFR, ErbB2, BRAF and VEGFR2) were carried out by DiscoverX using the supplied protocol as described in the Supplementary Materials. Briefly, ligand affinity was measured by competition with a resin-bound standard ligand and washed-off kinase concentration was determined via qPCR.
(§2) Summarizing, binding of a compound to a kinase was tested in comparison to a control compound (see Table S2). […]
(§3) 1.1. DiscoverX kinase assay
(§4) For most assays, kinase-tagged T7 phage strains were grown in parallel in 24-well blocks in an E.coli host derived from the BL21 strain. E.coli were grown to log-phase and infected with T7 phage from a frozen stock (multiplicity of infection = 0.4) and incubated with shaking at 32°C until lysis (90-150 minutes). The lysates were centrifuged (6,000 x g) and ﬁltered (0.2µm) to remove cell debris.
(§5) The remaining kinases were produced in HEK-293 cells and subsequently tagged with DNA for qPCR detection. Streptavidin-coated magnetic beads were treated with biotinylated small molecule ligands for 30 minutes at room temperature to generate afﬁnity resins for the kinases. The liganded beads were blocked with excess biotin and washed with blocking buffer (SeaBlock [Pierce], 1% BSA, 0.05% Tween 20, 1 mM DTT) to remove unbound ligands and to reduce non-speciﬁc phage binding. Binding reactions were assembled by combining kinases, liganded afﬁnity beads, and test compounds in 1x binding buffer (20% SeaBlock, 0.17x PBS, 0.05% Tween 20, 6 mM DTT). Test compounds were prepared as 40x stocks in 100% DMSO and directly diluted into the assay. All reactions were performed in polypropylene 384-well plates in a ﬁnal volume of 0.02 ml. The assay plates were incubated at room temperature with shaking for 1 hour and the afﬁnity beads were washed with wash buffer (1x PBS, 0.05% Tween 20). The beads were then re-suspended in elution buffer (1x PBS, 0.05% Tween 20, 0.5 µM non-biotinylated afﬁnity ligand) and incubated at room temperature with shaking for 30 minutes. The kinase concentration in the eluates was measured by qPCR. […]
(§6) Table S2. Experimental % control values from the DiscoverX kinase assay. Compounds were tested against the nine kinases EGFR, ErbB2, LCK, CDK2, BRAF, MET, p38α, PI3K and VEGFR2, unless otherwise stated. Binding of kinase and compound were tested at a compound concentration of 10 µM and in comparison to a control compound. Lower values indicate a higher afﬁnity of the compound to the protein and values below 35% indicate signiﬁcant binding according to information of the CRO. […]
(§7) a Compounds were only tested against four kinases (EGFR, ErbB2, BRAF and VEGFR2). b Compound was selected independently from two docking proﬁles and tested separately during

[2] = molecular target: T2, CDK2 (Homo sapiens, UniProt P24941); experiment: DiscoverX KINOMEscan competition binding assay; conditions: compound 10 µM; lower values = higher affinity; below 35% = significant binding
T2 construct: purchased DiscoverX (KINOMEscan service); host or cells: E. coli BL21-derived host (T7 phage) or HEK-293
Procedure: as §1, §2, §3, §4, §5, §6, §7

[3] = molecular target: T3, EGFR (Homo sapiens, UniProt P00533); experiment: DiscoverX KINOMEscan competition binding assay; conditions: compound 10 µM; lower values = higher affinity; below 35% = significant binding
T3 construct: purchased DiscoverX (KINOMEscan service); host or cells: E. coli BL21-derived host (T7 phage) or HEK-293
Procedure: as §1, §2, §3, §4, §5, §6, §7

[4] = molecular target: T4, ErbB2 (Homo sapiens, UniProt P04626); experiment: DiscoverX KINOMEscan competition binding assay; conditions: compound 10 µM, lower values = higher affinity, below 35% = significant binding
T4 construct: purchased DiscoverX (KINOMEscan service); host or cells: E. coli BL21-derived host (T7 phage) or HEK-293
T4 sequence (P04626 23-1255): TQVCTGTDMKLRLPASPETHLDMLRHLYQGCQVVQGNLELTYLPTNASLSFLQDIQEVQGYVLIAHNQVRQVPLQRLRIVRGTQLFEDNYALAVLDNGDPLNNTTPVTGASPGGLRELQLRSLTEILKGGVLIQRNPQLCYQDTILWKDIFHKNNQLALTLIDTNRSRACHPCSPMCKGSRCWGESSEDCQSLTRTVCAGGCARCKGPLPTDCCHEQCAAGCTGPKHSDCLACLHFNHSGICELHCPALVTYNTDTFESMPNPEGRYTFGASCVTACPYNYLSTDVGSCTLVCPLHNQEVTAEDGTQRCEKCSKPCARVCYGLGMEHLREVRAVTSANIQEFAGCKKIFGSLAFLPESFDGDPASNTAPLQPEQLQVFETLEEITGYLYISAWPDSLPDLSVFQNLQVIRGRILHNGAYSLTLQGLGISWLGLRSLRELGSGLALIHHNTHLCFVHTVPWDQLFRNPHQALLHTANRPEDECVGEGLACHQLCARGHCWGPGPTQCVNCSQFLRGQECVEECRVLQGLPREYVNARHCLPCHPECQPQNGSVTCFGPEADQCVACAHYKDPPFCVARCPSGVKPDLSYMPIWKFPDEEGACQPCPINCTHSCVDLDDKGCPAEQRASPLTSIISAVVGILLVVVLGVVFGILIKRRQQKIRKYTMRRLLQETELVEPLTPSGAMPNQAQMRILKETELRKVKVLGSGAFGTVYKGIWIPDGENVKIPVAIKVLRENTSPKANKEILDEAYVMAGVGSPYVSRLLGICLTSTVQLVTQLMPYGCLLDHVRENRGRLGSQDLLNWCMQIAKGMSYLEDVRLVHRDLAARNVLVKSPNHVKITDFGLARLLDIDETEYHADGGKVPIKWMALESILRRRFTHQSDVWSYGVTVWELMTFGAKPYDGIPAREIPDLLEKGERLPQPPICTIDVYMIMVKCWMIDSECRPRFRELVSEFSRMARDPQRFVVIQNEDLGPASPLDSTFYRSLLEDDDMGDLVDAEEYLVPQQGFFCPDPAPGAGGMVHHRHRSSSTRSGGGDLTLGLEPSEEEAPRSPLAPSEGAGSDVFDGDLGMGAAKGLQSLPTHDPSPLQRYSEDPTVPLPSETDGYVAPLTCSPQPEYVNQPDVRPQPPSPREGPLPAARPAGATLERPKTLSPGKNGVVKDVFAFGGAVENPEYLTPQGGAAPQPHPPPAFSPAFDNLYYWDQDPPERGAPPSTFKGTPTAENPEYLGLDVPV
Procedure: as §1, §2, §3, §4, §5, §6, §7

[5] = molecular target: T5, LCK (Homo sapiens, UniProt P06239); experiment: DiscoverX KINOMEscan competition binding assay; conditions: compound 10 µM; lower values = higher affinity; below 35% = significant binding
T5 construct: purchased DiscoverX (KINOMEscan service); host or cells: E. coli BL21-derived host (T7 phage) or HEK-293
T5 sequence (P06239 whole entry): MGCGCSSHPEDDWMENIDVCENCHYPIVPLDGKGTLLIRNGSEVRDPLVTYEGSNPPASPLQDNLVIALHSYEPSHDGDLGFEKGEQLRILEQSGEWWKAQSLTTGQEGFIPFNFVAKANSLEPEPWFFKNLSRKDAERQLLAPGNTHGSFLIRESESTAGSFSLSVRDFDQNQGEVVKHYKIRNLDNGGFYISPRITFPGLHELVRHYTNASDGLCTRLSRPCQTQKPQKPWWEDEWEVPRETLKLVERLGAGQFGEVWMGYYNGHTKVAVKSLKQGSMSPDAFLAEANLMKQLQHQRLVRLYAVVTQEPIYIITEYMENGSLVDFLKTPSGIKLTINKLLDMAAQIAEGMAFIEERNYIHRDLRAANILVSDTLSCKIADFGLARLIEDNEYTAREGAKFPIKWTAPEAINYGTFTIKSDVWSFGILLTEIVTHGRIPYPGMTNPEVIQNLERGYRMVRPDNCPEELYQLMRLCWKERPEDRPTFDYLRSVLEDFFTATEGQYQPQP
Procedure: as §1, §2, §3, §4, §5, §6, §7

[6] = molecular target: T6, MET (Homo sapiens, UniProt P08581); experiment: DiscoverX KINOMEscan competition binding assay; conditions: compound 10 µM; lower values = higher affinity; below 35% = significant binding
T6 construct: purchased DiscoverX (KINOMEscan service); host or cells: E. coli BL21-derived host (T7 phage) or HEK-293
T6 sequence (P08581 25-1390): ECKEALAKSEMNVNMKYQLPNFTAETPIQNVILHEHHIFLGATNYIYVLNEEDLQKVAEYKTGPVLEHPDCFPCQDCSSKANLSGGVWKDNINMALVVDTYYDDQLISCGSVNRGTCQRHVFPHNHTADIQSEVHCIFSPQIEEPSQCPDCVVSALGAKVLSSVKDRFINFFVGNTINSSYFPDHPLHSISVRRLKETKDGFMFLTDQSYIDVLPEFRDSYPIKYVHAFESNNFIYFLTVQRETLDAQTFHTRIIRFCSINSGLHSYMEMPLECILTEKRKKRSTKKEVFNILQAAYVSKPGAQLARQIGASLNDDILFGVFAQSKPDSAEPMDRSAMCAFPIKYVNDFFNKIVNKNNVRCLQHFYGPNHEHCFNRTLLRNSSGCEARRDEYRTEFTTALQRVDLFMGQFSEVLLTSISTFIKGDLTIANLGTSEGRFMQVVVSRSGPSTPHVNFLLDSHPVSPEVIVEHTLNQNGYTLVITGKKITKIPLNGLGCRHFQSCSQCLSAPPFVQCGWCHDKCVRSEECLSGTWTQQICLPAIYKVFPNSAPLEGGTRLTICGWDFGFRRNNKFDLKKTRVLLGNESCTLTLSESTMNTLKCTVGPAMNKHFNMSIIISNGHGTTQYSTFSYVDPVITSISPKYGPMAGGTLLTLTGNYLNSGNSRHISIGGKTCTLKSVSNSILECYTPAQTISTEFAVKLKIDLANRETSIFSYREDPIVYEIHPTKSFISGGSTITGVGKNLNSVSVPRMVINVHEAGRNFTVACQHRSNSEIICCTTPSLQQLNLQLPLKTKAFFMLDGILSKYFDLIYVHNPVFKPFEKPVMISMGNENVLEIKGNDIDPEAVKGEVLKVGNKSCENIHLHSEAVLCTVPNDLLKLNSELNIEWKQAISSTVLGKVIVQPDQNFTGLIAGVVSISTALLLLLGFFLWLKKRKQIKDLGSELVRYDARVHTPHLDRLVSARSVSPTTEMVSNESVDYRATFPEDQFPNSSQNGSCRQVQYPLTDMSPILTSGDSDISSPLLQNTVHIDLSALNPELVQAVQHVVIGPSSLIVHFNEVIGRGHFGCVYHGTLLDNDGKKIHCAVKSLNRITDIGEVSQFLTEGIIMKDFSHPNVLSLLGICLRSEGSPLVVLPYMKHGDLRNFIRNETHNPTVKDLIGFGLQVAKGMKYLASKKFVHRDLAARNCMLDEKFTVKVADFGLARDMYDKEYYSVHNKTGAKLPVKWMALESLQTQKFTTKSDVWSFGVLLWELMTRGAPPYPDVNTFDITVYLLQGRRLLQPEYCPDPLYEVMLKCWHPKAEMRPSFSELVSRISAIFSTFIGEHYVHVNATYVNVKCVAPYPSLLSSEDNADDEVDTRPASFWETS
Procedure: as §1, §2, §3, §4, §5, §6, §7

[7] = molecular target: T7, VEGFR2 (Homo sapiens, UniProt P35968); experiment: DiscoverX KINOMEscan competition binding assay; conditions: compound 10 µM, lower values = higher affinity, below 35% = significant binding
T7 construct: purchased DiscoverX (KINOMEscan service); host or cells: E. coli BL21-derived host (T7 phage) or HEK-293
T7 sequence (P35968 20-1356): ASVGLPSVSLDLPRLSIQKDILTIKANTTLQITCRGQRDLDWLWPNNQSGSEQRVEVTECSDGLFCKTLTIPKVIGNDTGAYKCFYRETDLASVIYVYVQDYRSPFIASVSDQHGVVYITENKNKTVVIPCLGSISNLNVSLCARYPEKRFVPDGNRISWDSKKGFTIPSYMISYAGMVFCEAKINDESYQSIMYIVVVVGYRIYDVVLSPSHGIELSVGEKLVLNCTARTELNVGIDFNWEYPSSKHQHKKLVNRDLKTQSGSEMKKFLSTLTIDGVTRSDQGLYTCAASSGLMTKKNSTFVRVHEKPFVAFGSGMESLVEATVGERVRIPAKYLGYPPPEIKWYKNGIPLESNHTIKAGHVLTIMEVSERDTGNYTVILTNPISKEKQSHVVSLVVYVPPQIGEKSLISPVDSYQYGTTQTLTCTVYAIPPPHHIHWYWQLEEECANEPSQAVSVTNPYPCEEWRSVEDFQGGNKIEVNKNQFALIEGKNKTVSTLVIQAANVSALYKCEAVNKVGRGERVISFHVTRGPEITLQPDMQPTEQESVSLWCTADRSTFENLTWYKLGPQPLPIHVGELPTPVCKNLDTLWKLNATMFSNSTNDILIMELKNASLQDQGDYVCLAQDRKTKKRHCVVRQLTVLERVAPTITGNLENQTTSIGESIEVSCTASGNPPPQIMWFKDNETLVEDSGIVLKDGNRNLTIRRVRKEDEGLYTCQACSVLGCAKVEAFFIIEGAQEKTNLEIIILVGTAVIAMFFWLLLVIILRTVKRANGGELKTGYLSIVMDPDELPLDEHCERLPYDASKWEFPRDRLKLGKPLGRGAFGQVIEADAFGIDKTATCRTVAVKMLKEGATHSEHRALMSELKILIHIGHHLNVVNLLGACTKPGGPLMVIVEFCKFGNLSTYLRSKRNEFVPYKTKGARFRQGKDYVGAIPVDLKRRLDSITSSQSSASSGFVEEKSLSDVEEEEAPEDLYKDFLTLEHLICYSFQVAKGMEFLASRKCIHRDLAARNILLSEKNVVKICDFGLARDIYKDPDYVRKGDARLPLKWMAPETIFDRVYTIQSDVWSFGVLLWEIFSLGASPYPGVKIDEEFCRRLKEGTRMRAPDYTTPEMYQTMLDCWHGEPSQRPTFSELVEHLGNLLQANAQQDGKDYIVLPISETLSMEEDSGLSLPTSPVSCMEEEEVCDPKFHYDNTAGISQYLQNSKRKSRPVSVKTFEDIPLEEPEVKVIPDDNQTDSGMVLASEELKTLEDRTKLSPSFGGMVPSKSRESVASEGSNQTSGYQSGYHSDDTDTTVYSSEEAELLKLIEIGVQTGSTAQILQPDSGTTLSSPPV
Procedure: as §1, §2, §3, §4, §5, §6, §7

[8] = molecular target: T8, p38α (Homo sapiens, UniProt Q16539); experiment: DiscoverX KINOMEscan competition binding assay; conditions: compound 10 µM; lower values = higher affinity; below 35% = significant binding
T8 construct: purchased DiscoverX (KINOMEscan service); host or cells: E. coli BL21-derived host (T7 phage) or HEK-293
T8 sequence (Q16539 whole entry): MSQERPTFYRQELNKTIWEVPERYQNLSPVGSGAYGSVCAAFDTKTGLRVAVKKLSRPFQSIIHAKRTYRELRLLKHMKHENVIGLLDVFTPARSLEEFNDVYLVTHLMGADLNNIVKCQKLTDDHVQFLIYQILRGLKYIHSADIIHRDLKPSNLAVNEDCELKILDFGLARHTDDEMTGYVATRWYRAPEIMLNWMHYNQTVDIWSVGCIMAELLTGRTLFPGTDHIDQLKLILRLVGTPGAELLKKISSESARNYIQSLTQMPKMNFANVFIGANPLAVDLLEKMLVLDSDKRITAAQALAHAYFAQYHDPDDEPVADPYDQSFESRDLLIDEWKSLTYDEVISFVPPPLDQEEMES
Procedure: as §1, §2, §3, §4, §5, §6, §7

[9] = molecular target: T1, BRAF; experiment: Eurofins in vitro kinase inhibition assay; assay type: biochemical; conditions: compound 20 µM; mean (SD); above 50% significant, 25-50% weak
Procedure: (§8) Kinase inhibition assays for EGFR, ErbB2, PI3K and BRAF were carried out by Eurofins Cerep following the protocols of Weber et al. (EGFR), Quian et al. (ErbB2), Sinnamon et al. (PI3K) and Kupcho et al. (BRAF). Briefly, except for PI3K, compounds were incubated with the respective kinase, ATP, and a substrate analog, and the effect of each compound on phosphorylation was measured. In the case of PI3K, the displacement of biotinylated PIP3 from a PIP3-binding complex by unlabelled PIP3 (produced from PIP2 by PI3K) was measured by Homogeneous Time Resolved Fluorescence (HTRF).
(§9) Finally, inhibition of the respective kinases is calculated as the percentage inhibition of control activity.
(§10) Table S3. Experimental results from the Euroﬁns assay. Inhibition of four kinases (EGFR, PI3K, ErbB2, BRAF) was measured at compound concentrations of 20 µM. Inhibition was calculated as % inhibition of control activity. According to CRO, values above 50% inhibition represent signiﬁcant inhibition, values above 25% weak inhibition effect and values below 25% as well as negative values are usually not signiﬁcant. Results are reported in mean (SD) format. […]
(§11) a Compound interfered with assay readout.

[10] = molecular target: T3, EGFR; experiment: Eurofins in vitro kinase inhibition assay; assay type: biochemical; conditions: compound 20 µM; mean (SD); above 50% significant, 25-50% weak
Procedure: as §8, §9, §10, §11

[11] = molecular target: T4, ErbB2; experiment: Eurofins in vitro kinase inhibition assay; assay type: biochemical; conditions: compound 20 µM; mean (SD); above 50% significant, 25-50% weak
Procedure: as §8, §9, §10, §11

[12] = molecular target: T9, PI3K (Homo sapiens, UniProt P42336); experiment: Eurofins in vitro kinase inhibition assay (HTRF, PIP3 displacement); assay type: biochemical; design: purchased Eurofins Cerep (contract assay); conditions: compound 20 µM; mean (SD); above 50% significant, 25-50% weak
Procedure: as §8, §9, §10, §11

[13] = molecular target: T9, PI3K; experiment: DiscoverX KINOMEscan competition binding assay; design: purchased DiscoverX (KINOMEscan service); host or cells: E. coli BL21-derived host (T7 phage) or HEK-293; conditions: compound 10 µM; lower values = higher affinity; below 35% = significant binding
Procedure: as §1, §2, §3, §4, §5, §6, §7

Row | Structure (SMILES) | % control, BRAF (DiscoverX) [1] [% control] | % control, CDK2 (DiscoverX) [2] [% control] | % control, EGFR (DiscoverX) [3] [% control] | % control, ErbB2 (DiscoverX) [4] [% control] | % control, LCK (DiscoverX) [5] [% control] | % control, MET (DiscoverX) [6] [% control] | % control, VEGFR2 (DiscoverX) [7] [% control] | % control, p38α (DiscoverX) [8] [% control] | % inhibition of control activity, BRAF (Eurofins) [9] | % inhibition of control activity, EGFR (Eurofins) [10] | % inhibition of control activity, ErbB2 (Eurofins) [11] | % inhibition of control activity, PI3K (Eurofins) [12] | % control, PI3K (DiscoverX) [13] [% control] | % control, BRAF (DiscoverX) ([1]; listed as K001MM009) [% control] | % control, ErbB2 (DiscoverX) ([4]; listed as K001MM009) [% control] | % control, VEGFR2 (DiscoverX) ([7]; listed as K001MM009) [% control] | % ctrl. activity at 10 µM, BRAF (DiscoverX), printed as symbol ([1]; 10 µM, Table 3)
1 | Cc1ccc(/C=C2\N=C(c3cccc(S(=O)(=O)N(C)C)c3)OC2=O)s1 [DS74871] | 100 | 100 | 100 | 100 | 90 | 95 | 100 | 81 | -44.9 (24.1) % inhibition | 23.3 (4.2) % inhibition | -8.3 (1.2) % inhibition | 22.1 (2.3) % inhibition | 100 |  |  |  | 
2 | Cc1ccc(-n2cnnn2)cc1NC(=O)NCC1CC1 [DS44738] | 100 | 100 | 100 | 91 | 100 | 84 | 100 | 100 | -20.8 (0.4) % inhibition | 4.4 (14.0) % inhibition | 10.5 (23.6) % inhibition | 0.4 (1.7) % inhibition | 94 | 96 | 98 | 98 | 
3 | CCOCC(C)(C)NC(=O)Nc1cc(F)ccc1OC [K001MM006] | 100 |  | 96 | 100 |  |  | 100 |  |  |  |  |  |  |  |  |  | 
4 | CCc1nccc(-c2nccn2C(Cn2cccn2)c2ccccc2)n1 (centres unmarked) [DS23815] | 99 | 99 | 100 | 100 | 100 | 99 | 100 | 100 | -19.7 (2.4) % inhibition | 10.7 (0.4) % inhibition | -7.2 (5.7) % inhibition |  | 97 |  |  |  | 
5 | Nc1nc(N2CCC[C@H](Cc3nc4ccccc4[nH]3)C2)c2nc[nH]c2n1 [K001MM010] | 100 |  | 95 | 90 |  |  | 97 |  |  |  |  |  |  |  |  |  | 
6 | Cc1cc(COC(=O)c2cnc3c(cnn3Cc3ccccc3)c2)on1 [K001MM013] | 100 |  | 100 | 94 |  |  | 90 |  |  |  |  |  |  |  |  |  | 
7 | Cc1cccc(NC(=O)N[C@H](C)[C@H](C)N2CCOCC2)n1 [K001MM007] | 87 |  | 90 | 94 |  |  | 100 |  |  |  |  |  |  |  |  |  | 
8 | CCCCn1nnnc1CN1CCc2nn(CC)c(=O)cc2C1 [K001MM005] | 99 |  | 100 | 100 |  |  | 100 |  |  |  |  |  |  |  |  |  | 
9 | COCCCNC(=O)c1nc2c3c4c(sc3ncn2n1)CC[C@H](C)C4 [DS31939] | 100 | 100 | 100 | 100 | 99 | 100 | 100 | 100 | -27.8 (10.8) % inhibition | 9.6 (0.2) % inhibition | -1.7 (0.8) % inhibition |  | 73 |  |  |  | 
10 | Cc1ccc(NC(=O)COC(=O)c2cc(=O)[nH]c3ccccc23)cc1 [K001MM012] | 100 |  | 90 | 100 |  |  | 91 |  |  |  |  |  |  |  |  |  | 
11 | CC(C)OCC(O)CN1CCN(C(=O)c2cccc(Cl)c2)CC1 (centres unmarked) [K001MM002] | 89 |  | 97 | 92 |  |  | 100 |  |  |  |  |  |  |  |  |  | 
12 | COCCNC(=O)NC(C)Cc1ccc(O)cc1 (centres unmarked) [K001MM004] | 100 |  | 100 | 100 |  |  | 100 |  |  |  |  |  |  |  |  |  | 
13 | Cc1ccccc1Cn1cnc2c(nnn2-c2ccccc2)c1=O [K001MM003] | 95 |  | 99 | 99 |  |  | 100 |  |  |  |  |  |  |  |  |  | 
14 | CC1Oc2ccc(Nc3ncnc4c3oc3ccccc34)cc2NC1=O (centres unmarked) [K001MM011] | 100 |  |  |  |  |  | 99 |  |  |  |  |  |  |  |  |  | – ^d (percent control activity ≥ 99%, i.e., no measurable inhibition)
